The text below walks through data of ChEMBL document CHEMBL1201862, “PubChem BioAssay data set” (2004).

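Each compound was tested at five concentrations against cells in 96-well plates for 48 hours. At the GI50, growth is halved.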 Calls of active or inactive are those of the source. No stated cut-off is given here; in the data, active = GI50 up to about 1.1 µM and inactive = higher.

Among the test systems are LXFL 529; XF498; M19-MEL; DMS-114; KM-20L2; HOP-18; RXF 631; DLD-1; SNB-78.
Common to all, as to test: DTP human tumour cell line panel, 48 h

Turning to `COC(=O)C1=C(c2ccc(OC)c(OC)c2)OC(c2cc(OC)c(OC)c(OC)c2)C1` (configuration not stated), the GI50 (commonly the concentration at which growth is held to half of that of the control) in the assay with LXFL 529 is 0.711 µM (active); with XF498, 24.5 µM (inactive); with M19-MEL it was > 100 µM (inactive); with DMS-114 it was 37.6 µM (inactive); in the assay on KM-20L2, > 100 µM (inactive); with HOP-18, 61.7 µM (inactive). Also, the GI50 in the assay with RXF 631 was 94.2 µM (inactive); with DLD-1, 2.12 µM (inactive); with SNB-78, 22.8 µM (inactive).

As to `CC1=C(C(=O)Nc2ccc([N+](=O)[O-])cc2)C(c2cccc([N+](=O)[O-])c2)C(C(=O)Nc2ccc([N+](=O)[O-])cc2)=C(C)N1`, the GI50 in the assay with LXFL 529 was 8.53 µM (inactive); in the assay on XF498, 2.87 µM (inactive); in the assay with M19-MEL, 23 µM (inactive); in the assay with DMS-114, 8.53 µM (inactive); in the assay on KM-20L2, 16.6 µM (inactive); with HOP-18 it was > 100 µM (inactive). In addition, the GI50 with RXF 631 is > 100 µM (inactive); with DLD-1, 9.66 µM (inactive); in the assay on SNB-78, > 100 µM (inactive).

With `C/C(=N\N(C)C)C(CN1CCCCC1)C(c1ccccc1)c1c(O)c2ccccc2oc1=O` (configuration not stated), the GI50 in the assay with LXFL 529 is > 100 µM (inactive); with XF498, 74.1 µM (inactive); with M19-MEL, > 100 µM (inactive); in the assay with DMS-114, > 100 µM (inactive); in the assay with KM-20L2, > 100 µM (inactive); with HOP-18, > 100 µM (inactive). The GI50 in the assay on RXF 631, in the assay with DLD-1 and with SNB-78 was > 100 µM (inactive) in each case.
